The record followed here is patent US8188101B2 (AstraZeneca AB, priority 2008, dated 2012).

In this assay the test system is Aβ42 release. The experiment in a line: Aβ release in cells stably expressing APPswe, Meso Scale Discovery electrochemiluminescence assay. Conditions: Homo sapiens, SH-SY5Y, HEK or SH-SY5Y cells stably expressing APPswe, 4-6 hours incubation with test compound. The format is cell-based, Human. Here is the method:
The level of activity of the compounds on Aβ release was tested using the following method:
Compounds were diluted in 100% DMSO and stored at […] prior to use. Human Embryonic Kidney (HEK) or Human Neuroblastoma (SH-SY5Y) cell lines stably expressing APP with the Swedish mutation (APPswe) were cultured using Dulbecco's Modified Eagles medium (DMEM) supplied with […] glucose, Na-pyruvate and GlutaMAX with 10% FBS, 100 U/ml penicillin-streptomycin (PEST) respectively, 1× non-essential amino acids (NEAA), […] Hepes, 100 μg/ml Zeocine. Cells at about 80% confluence were washed with PBS, detached from culture flasks using 1× Trypsin/EDTA diluted in PBS, re-suspended in cell media and plated in 384-well poly-d-lysine coated cell culture plates at about 10000-15000 cells/well, in 25 μL cell media. Optionally, cryo-preserved cells (frozen and stored at −140° C. in 90% cell media and 10% DMSO) were thawed, washed and plated as above. Next the cells were incubated for 15-24 h at 37° C. and 5% CO2, after which cell medium was changed. Fresh medium containing test compound diluted ×200 from prepared compound plate was added to the cells before further incubation for 4-6 hours at 37° C. and 5% CO2. After incubation with test compound the amount of Aβ peptides, including Aβ42, Aβ40, Aβ39, Aβ38 and Aβ37, secreted to the cell medium was analyzed using the electrochemiluminescence assay technology from Meso Scale Discovery Technology, in combination with specific antibodies raised against the different Aβ peptides. Potential cytotoxic effects of the compounds were usually assayed by measuring the ATP content (ViaLight) from cell lysate.
As a reminder, the IC50 is the midpoint of a concentration-inhibition curve. On to `CCS(=O)(=O)N1CCc2nc(Nc3ccc(-c4cnco4)cc3)nc(N(CCO)c3ccccc3)c2C1` [Example 22, 2-((6-(Ethylsulfonyl)-2-(4-(oxazol-5-yl)phenylamino)-5,6,7,8-tetrahydropyrido[4,3-d]pyrimidin-4-yl)(phenyl)amino)ethanol], for which the IC50 is 398 nM. Turning to `COC(=O)N1CCc2nc(Nc3ccc(-c4cnco4)cc3)nc(N(CCO)c3ccccc3)c2C1` [Example 23, Methyl 4-((2-hydroxyethyl)(phenyl)amino)-2-(4-(oxazol-5-yl)phenylamino)-7,8-dihydropyrido[4,3-d]pyrimidine-6(5H)-carboxylate], the IC50 was 6310 nM.

For the molecule `CCOC(=O)N1CCc2nc(Nc3ccc(-c4cnco4)cc3)nc(N(CCO)c3ccccc3)c2C1` [Example 24, Ethyl 4-((2-hydroxyethyl)(phenyl)amino)-2-(4-(oxazol-5-yl)phenylamino)-7,8-dihydropyrido[4,3-d]pyrimidine-6(5H)-carboxylate], the IC50 is 251 nM. `CN(C)C(=O)N1CCc2nc(Nc3ccc(-c4cnco4)cc3)nc(N(CCO)c3ccccc3)c2C1` [Example 25, 4-((2-Hydroxyethyl)(phenyl)amino)-N,N-dimethyl-2-(4-(oxazol-5-yl)phenylamino)-7,8-dihydropyrido[4,3-d]pyrimidine-6(5H)-carboxamide]: the IC50 is 794 nM. As to `CC(=O)N1CCc2nc(Nc3ccc(-c4cnco4)cc3)nc(NC3CCCCC3)c2C1` [Example 26, 1-(4-(Cyclohexylamino)-2-(4-(oxazol-5-yl)phenylamino)-7,8-dihydropyrido[4,3-d]pyrimidin-6(5H)-yl)ethanone], the IC50 was 126 nM. The figure for `CC(=O)N1CCc2nc(Nc3ccc(-c4cnco4)cc3)nc(NC[C@@H]3CCCO3)c2C1` [Example 27, (S)-1-(2-(4-(Oxazol-5-yl)phenylamino)-4-((tetrahydrofuran-2-yl)methylamino)-7,8-dihydropyrido[4,3-d]pyrimidin-6(5H)-yl)ethanone] is 316 nM; for `CC(=O)N1CCc2nc(Nc3ccc(-c4cnco4)cc3)nc(N(CCO)c3ccccc3)c2C1` [Example 28, 1-(4-((2-Hydroxyethyl)(phenyl)amino)-2-(4-(oxazol-5-yl)phenylamino)-7,8-dihydropyrido[4,3-d]pyrimidin-6(5H)-yl)ethanone] it is 794 nM; for `CC(=O)N1CCc2nc(Nc3ccc(-c4cnco4)cc3)nc(Nc3cccc(CO)c3)c2C1` [Example 29, 1-(4-(3-(Hydroxymethyl)phenylamino)-2-(4-(oxazol-5-yl)phenylamino)-7,8-dihydropyrido[4,3-d]pyrimidin-6(5H)-yl)ethanone] it is 631 nM. The value for `CC(=O)N1CCc2nc(Nc3ccc(-c4cnco4)cc3)nc(N3c4ccccc4C[C@H]3CO)c2C1` [Example 30] was 1000 nM.

In the case of `CC(=O)N1CCc2nc(Nc3ccc(-c4cnco4)cc3)nc(N(CCC#N)C3CC3)c2C1` [Example 31, 3-((6-Acetyl-2-(4-(oxazol-5-yl)phenylamino)-5,6,7,8-tetrahydropyrido[4,3-d]pyrimidin-4-yl)(cyclopropyl)amino)propanenitrile], the half-maximal inhibitory concentration (IC50) was 794 nM. The value for `CC(=O)N1CCc2nc(Nc3ccc(-c4cnco4)cc3)nc(N(CCO)Cc3ccccc3)c2C1` [Example 32, 1-(4-(Benzyl(2-hydroxyethyl)amino)-2-(4-(oxazol-5-yl)phenylamino)-7,8-dihydropyrido[4,3-d]pyrimidin-6(5H)-yl)ethanone] was 794 nM; that for `CC(=O)c1cccc(Nc2nc(Nc3ccc(-c4cnco4)cc3)nc3c2CN(C(C)=O)CC3)c1` [Example 33, 1-(3-(6-Acetyl-2-(4-(oxazol-5-yl)phenylamino)-5,6,7,8-tetrahydropyrido[4,3-d]pyrimidin-4-ylamino)phenyl)ethanone] was 1260 nM. The value for `CC(=O)N1CCc2nc(Nc3ccc(-c4cnco4)cc3)nc(N(C)CC(O)c3ccccc3)c2C1` (centres unmarked) [Example 34, 1-(4-((2-Hydroxy-2-phenylethyl)(methyl)amino)-2-(4-(oxazol-5-yl)phenylamino)-7,8-dihydropyrido[4,3-d]pyrimidin-6(5H)-yl)ethanone] was 3160 nM; that for `CC(=O)N1CCc2nc(Nc3ccc(-c4cnco4)cc3)nc(NC3(CO)CCCC3)c2C1` [Example 35, 1-(4-(1-(Hydroxymethyl)cyclopentylamino)-2-(4-(oxazol-5-yl)phenylamino)-7,8-dihydropyrido[4,3-d]pyrimidin-6(5H)-yl)ethanone] was 3160 nM. In the case of `CC(=O)N1CCc2nc(Nc3ccc(-c4cnco4)cc3)nc(N(C)Cc3cccnc3)c2C1` [Example 36, 1-(4-(Methyl(pyridin-3-ylmethyl)amino)-2-(4-(oxazol-5-yl)phenylamino)-7,8-dihydropyrido[4,3-d]pyrimidin-6(5H)-yl)ethanone], the IC50 is 5010 nM. The figure for `CC(=O)N1CCc2nc(Nc3ccc(-c4cnco4)cc3)nc(N3c4ccccc4C[C@@H]3CO)c2C1` [Example 37] is 10000 nM; for `CN1CCc2nc(Nc3ccc(-c4cnn(C)c4)cc3)nc(N(CCO)c3ccccc3)c2C1` [Example 38, 2-((6-Methyl-2-(4-(1-methyl-1H-pyrazol-4-yl)phenylamino)-5,6,7,8-tetrahydropyrido[4,3-d]pyrimidin-4-yl)(phenyl)amino)ethanol] it is 398 nM. Consider `CCCN1CCc2nc(Nc3ccc(-c4cnn(C)c4)cc3)nc(N(CCO)c3ccccc3)c2C1` [Example 39, 2-((2-(4-(1-Methyl-1H-pyrazol-4-yl)phenylamino)-6-propyl-5,6,7,8-tetrahydropyrido[4,3-d]pyrimidin-4-yl)(phenyl)amino)ethanol], for which the IC50 was 158 nM.

Regarding `Cc1nccn1-c1ccc(Nc2nc3c(c(Cc4ccccc4)n2)CN(CCO)CC3)cc1` [Example 41, 2-(4-Benzyl-2-(4-(2-methyl-1H-imidazol-1-yl)phenylamino)-7,8-dihydropyrido[4,3-d]pyrimidin-6(5H)-yl)ethanol], the IC50 was 200 nM.

Turning to `Cc1nccn1-c1ccc(Nc2nc3c(c(Cc4ccccc4)n2)CN(C)CC3)cc1` [Example 42, 4-Benzyl-6-methyl-N-(4-(2-methyl-1H-imidazol-1-yl)phenyl)-5,6,7,8-tetrahydropyrido[4,3-d]pyrimidin-2-amine], the IC50 was 398 nM. The value for `COc1cc(Nc2nc3c(c(Cc4ccccc4)n2)COCC3)ccc1-n1cnc(C)c1` [Example 43, 4-Benzyl-N-(3-methoxy-4-(4-methyl-1H-imidazol-1-yl)phenyl)-7,8-dihydro-5H-pyrano[4,3-d]pyrimidin-2-amine] was 63.1 nM; that for `COc1cc(Nc2nc3c(c(Cc4ccc(F)cc4)n2)C[S+]([O-])CC3)ccc1-n1cnc(C)c1` (centres unmarked) [Example 44, 4-(4-Fluorobenzyl)-N-[3-methoxy-4-(4-methyl-1H-imidazol-1-yl)phenyl]-7,8-dihydro-5H-thiopyrano[4,3-d]pyrimidin-2-amine 6-oxide] was 79.4 nM; that for `Cc1nccn1-c1ccc(Nc2nc3c(c(Cc4ccccc4)n2)COCC3)cc1` [Example 45, 4-Benzyl-N-(4-(2-methyl-1H-imidazol-1-yl)phenyl)-7,8-dihydro-5H-pyrano[4,3-d]pyrimidin-2-amine] was 631 nM. The figure for `Cc1nccn1-c1ccc(Nc2nc3c(c(CC4CCOCC4)n2)CSCC3)cc1` [Example 46, N-(4-(2-Methyl-1H-imidazol-1-yl)phenyl)-4-((tetrahydro-2H-pyran-4-yl)methyl)-7,8-dihydro-5H-thiopyrano[4,3-d]pyrimidin-2-amine] is 1580 nM; for `Cc1nccn1-c1ccc(Nc2nc(CCC3CCCCC3)c3c(n2)CCN(CCO)C3)cc1` [Example 47, 2-(4-(2-Cyclohexylethyl)-2-(4-(2-methyl-1H-imidazol-1-yl)phenylamino)-7,8-dihydropyrido[4,3-d]pyrimidin-6(5H)-yl)ethanol] it is 79.4 nM. As to `Cc1ccc(Cc2nc(Nc3ccc(-n4ccnc4C)cc3)nc3c2CN(CCO)CC3)cc1` [Example 48, 2-(2-(4-(2-Methyl-1H-imidazol-1-yl)phenylamino)-4-(4-methylbenzyl)-7,8-dihydropyrido[4,3-d]pyrimidin-6(5H)-yl)ethanol], the IC50 was 200 nM.

Take `Cc1nccn1-c1ccc(Nc2nc(CCc3cccc(F)c3)c3c(n2)CCN(CCO)C3)cc1` [Example 49, 2-(4-(3-Fluorophenethyl)-2-(4-(2-methyl-1H-imidazol-1-yl)phenylamino)-7,8-dihydropyrido[4,3-d]pyrimidin-6(5H)-yl)ethanol]: the IC50 is 251 nM. The value for `Cc1ccc(Cc2nc(Nc3ccc(-n4ccnc4C)cc3)nc3c2CN(C)CC3)cc1` [Example 50, 6-Methyl-N-(4-(2-methyl-1H-imidazol-1-yl)phenyl)-4-(4-methylbenzyl)-5,6,7,8-tetrahydropyrido[4,3-d]pyrimidin-2-amine] was 251 nM; that for `Cc1nccn1-c1ccc(Nc2nc(CCc3cccc(F)c3)c3c(n2)CCN(C)C3)cc1` [Example 51, 4-(3-Fluorophenethyl)-6-methyl-N-(4-(2-methyl-1H-imidazol-1-yl)phenyl)-5,6,7,8-tetrahydropyrido[4,3-d]pyrimidin-2-amine] was 251 nM.
